{"source": "patent US20230174538A1", "about": "“Tricyclic heterocycles” (Merck Patent GmbH, priority 2020, published 2023)", "data": [{"test_system": "YAP-TEAD interaction", "assay": "SK-HEP-1 reporter assay (8xTEAD responsive elements driving NanoLuc luciferase)", "assay_type": "cell-based", "settings": "Homo sapiens, SK-HEP1, SK-HEP-1 reporter assay", "method": "To identify inhibitors of YAP-TEAD interaction, 8×TEAD responsive elements driving the NanoLuc® luciferase gene were stably integrated into SK-HEP-1 cells (ECACC #: 91091816).\nFor the assay, cells were treated in duplicates with the test compounds in a 10-point dose, with the top concentration starting at 30 μM (final concentration in assay). After a 24 hour incubation at 37° C., 95% rH, and 5% CO2, a luciferase substrate/lysis reagent mix (NanoGlo™, Promega) was added to the cells, allowing the quantification of cellular luciferase activity.\nCell Media: The cells were cultured in the following media: MEM, +10% FBS, +1× GlutaMAX, +1 mM Sodium-Pyruvate, +100 μM Non-essential amino acids, +0.1 mg/ml Hygromycin. The media used for the assay was: MEM (w/o Phenol Red), +10% FBS, +1× GlutaMAX, +1 mM Sodium-Pyruvate, +100 μM Non-essential amino acids, +0.5% Pen/Strep\nReagents: The reagents used are listed below:\nCell culture: The cells were examined using an inverted microscope to check for health and cell density. To dissociate adherent cells, the monolayer of cells was washed once with pre-warmed PBS. After removing the PBS, 3 ml pre-warmed Accutase® was added to a F75 flask, dispersed evenly and the flask was allowed to sit in incubator for ˜4-5 minutes.\nWhen a single cell suspension was obtained, 7 ml of prewarmed growth media was added and resuspended with the cells. The cell suspension was transferred to a sterile 15 ml conical centrifuge tube, and spun for 5 min at 300×g, RT. The supernatant was discarded and the pellet was resuspended in 10 ml of pre-warmed growth media.\nThe total cell count was determined, and 20 μl of the desired cell number was added to each well of a 384 well plate using a Multidrop Combi. The plates were then incubated for 24 hours at 37° C., 95% rH, and 5% CO2.\nCompound treatment: 24 hours after seeding, the cells were treated with compounds.\nA 1:333 dilution of compounds, diluted in DMSO, was made to get a final concentration of 0.3% DMSO per well. To transfer the compounds to the assay plate, 120 nl was shot from Labcyte low dead volume plates to the cell plates containing 20 μl media/well with the ECHO 555 liquid handling system.\nAfter treatment, the cells were fed with 20 μl fresh pre-warmed assay media using a Multidrop combi.\nThe assay plates were then incubated for another 24 h at 37° C., 95% rH, and 5% CO2.\nLuciferase readout: 24 h after treatment, the plates were taken out of the incubator and were allowed to equilibrate to RT. 30 μl of NanoGlo® reagent was added to the plates in the dark. Plates were shaken for 20 min on a Teleshake (˜1500 rpm) in the dark. The luminescence was then measured using an EnVision microplate reader. The IC50 values were generated using Genedata Screener®.", "units": {"IC50": "nM"}, "values": [{"molecule": "Cn1cc2c3cc(C(=O)NC(CO)c4ccccn4)ccc3n(-c3ccc(C(F)(F)F)cc3)c2n1", "note": "(racemic) [Example 29, N-[2-hydroxy-1-(pyridin-2-yl)ethyl]-2-methyl-8-[4-(trifluoromethyl)phenyl]-2H,8H-pyrazolo[3,4-b]indole-5-carboxamide]", "IC50": "100 to 10000"}, {"molecule": "Cn1cc2c3cc(C(=O)NC45CC4COC5(C)C)ccc3n(-c3ccc(C(F)(F)F)cc3)c2n1", "note": "(stereo not drawn) [Example B73, N-(2,2-dimethyl-3-oxabicyclo[3.1.0]hexan-1-yl}-2-methyl-8-[4-(trifluoromethyl)phenyl]-2H,8H-pyrazolo[3,4-b]indole-5-carboxamide]", "IC50": "100 to 10000"}, {"molecule": "Cn1cc2c3cc(C(=O)N4CCCC4Cn4cncn4)ccc3n(-c3ccc(C(F)(F)F)cc3)c2n1", "note": "(stereo not drawn) [Example B54, 1-[(1-{2-methyl-8-[4-(trifluoromethyl)phenyl]-2H,8H-pyrazolo[3,4-b]indole-5-carbonyl}pyrrolidin-2-yl)methyl]-1H-1,2,4-triazole]", "IC50": "> 10000"}, {"molecule": "Cn1cc2c3cc(C(=O)N4CC(c5ocnc5CO)C4)ccc3n(-c3ccc(C(F)(F)F)cc3)c2n1", "note": "[Example B30, [5-(1-{2-methyl-8-[4-(trifluoro-methyl)phenyl]-2H,8H-pyrazolo[3,4-b]indole-5-carbonyl}azetidin-3-yl)-1,3-oxazol-4-yl]methanol]", "IC50": "> 10000"}, {"molecule": "Cn1cc2c3cc(C(=O)NC4(c5nnc[nH]5)CC4)ccc3n(-c3ccc(C(F)(F)F)cc3)c2n1", "note": "[B134^]", "IC50": "100 to 10000"}, {"molecule": "Cn1cc2c3cc(C(=O)NCC4CC45CCOC5)ccc3n(-c3ccc(C(F)(F)F)cc3)c2n1", "note": "(stereo not drawn) [Example B75, 2-methyl-N-({5-oxaspiro[2.4]heptan-1-yl}methyl)-8-[4-(trifluoromethyl)phenyl]-2H,8H-pyrazolo[3,4-b]indole-5-carboxamide]", "IC50": "100 to 10000"}, {"molecule": "Cn1cc2c3cc(C(=O)O)ccc3n(Cc3cccc(C(F)(F)F)c3)c2n1", "note": "[Example 8, 2-Methyl-8-{[3-(trifluoromethyl)phenyl]methyl}-2H,8H-pyrazolo[3,4-b]indole-5-carboxylic acid]", "IC50": "100 to 10000"}, {"molecule": "COc1cc(CN(C)C(=O)c2ccc3c(c2)c2cn(C)nc2n3-c2ccc(C(F)(F)F)cc2)sn1", "note": "[B136^]", "IC50": "> 10000"}, {"molecule": "Cn1cc2c3cc(C(=O)NC4CCCn5nccc54)ccc3n(-c3ccc(C(F)(F)F)cc3)c2n1", "note": "(stereo not drawn) [Example B76, 2-methyl-N-(4H,5H,6H,7H-pyrazolo[1,5-a]pyridin-4-yl}-8-[4-(trifluoromethyl)phenyl]-2H,8H-pyrazolo[3,4-b]indole-5-carboxamide]", "IC50": "10 to 100"}, {"molecule": "Cn1cc2c3cc(C(=O)NC4(c5ccncc5F)CC4)ccc3n(-c3ccc(C(F)(F)F)cc3)c2n1", "note": "[B127^]", "IC50": "100 to 10000"}, {"molecule": "Cn1cc2c3cc(C(=O)NC4CC(O)C45CCOCC5)ccc3n(-c3ccc(C(F)(F)F)cc3)c2n1", "note": "(stereo not drawn) [Example B16, N-{3-hydroxy-7-oxaspiro[3.5]nonan-1-yl}-2-methyl-8-[4-(trifluoromethyl)phenyl]-2H,8H-pyrazolo[3,4-b]indole-5-carboxamide]", "IC50": "100 to 10000"}, {"molecule": "Cn1cc2c3cc(C(=O)NC4CN(c5ccncn5)C4)ccc3n(-c3ccc(C(F)(F)F)cc3)c2n1", "note": "[B104^]", "IC50": "> 10000"}, {"molecule": "Cn1cc2c3cc(C(=O)NC(c4ncon4)C4CC4)ccc3n(-c3ccc(C(F)(F)F)cc3)c2n1", "note": "(stereo not drawn) [Example B31, N-[cyclopropyl(1,2,4-oxadiazol-3-yl)methyl]-2-methyl-8-[4-(trifluoromethyl)phenyl]-2H,8H-pyrazolo[3,4-b]indole-5-carboxamide]", "IC50": "10 to 100"}, {"molecule": "Cn1cc2c3cc(C(=O)N[C@@H]4C[C@H](O)[C@H]4n4cccn4)ccc3n(-c3ccc(C(F)(F)F)cc3)c2n1", "note": "(relative stereo) [Example B26, N-[(1R,2S,3S)-3-hydroxy-2-(1H-pyrazol-1-yl)cyclobutyl]-2-methyl-8-[4-(trifluoromethyl)phenyl]-2H,8H-pyrazolo[3,4-b]indole-5-carboxamide]", "IC50": "100 to 10000"}, {"molecule": "CC1CN(C(=O)c2ccc3c(c2)c2cn(C)nc2n3-c2ccc(C(F)(F)F)cc2)CC(CCO)O1", "note": "(stereo not drawn) [Example B33, 2-(6-methyl-4-{2-methyl-8-[4-(trifluoromethyl)phenyl]-2H,8H-pyrazolo[3,4-b]indole-5-carbonyl}morpholin-2-yl)ethan-1-ol]", "IC50": "100 to 10000"}, {"molecule": "Cn1cc2c3cc(C(=O)N4CC(F)(F)CC4(C)CO)ccc3n(-c3ccc(C(F)(F)F)cc3)c2n1", "note": "(stereo not drawn) [Example B35, (4,4-difluoro-2-methyl-1-{2-methyl-8-[4-(trifluoromethyl)phenyl]-2H,8H-pyrazolo[3,4-b]indole-5-carbonyl}pyrrolidin-2-yl)methanol]", "IC50": "> 10000"}, {"molecule": "Cn1cc2c3cc(C(=O)NCCc4cc(O)n(C)n4)ccc3n(-c3ccc(C(F)(F)F)cc3)c2n1", "note": "[Example B38, N-[2-(5-hydroxy-1-methyl-1H-pyrazol-3-yl)ethyl]-2-methyl-8-[4-(trifluoromethyl)phenyl]-2H,8H-pyrazolo[3,4-b]indole-5-carboxamide]", "IC50": "> 10000"}, {"molecule": "Cn1cc2c3cc(C(=O)NC4CCCN(CCF)C4)ccc3n(-c3ccc(C(F)(F)F)cc3)c2n1", "note": "(stereo not drawn) [B143^]", "IC50": "> 10000"}, {"molecule": "Cn1cc2c3cc(C(=O)N4CC(O)(c5ccsc5)C4)ccc3n(-c3ccc(C(F)(F)F)cc3)c2n1", "note": "[B135^]", "IC50": "100 to 10000"}, {"molecule": "Cn1cc2c3cc(C(=O)NCCn4cnnc4C4CC4)ccc3n(-c3ccc(C(F)(F)F)cc3)c2n1", "note": "[Example B98, N-[2-(3-cyclopropyl-4H-1,2,4-triazol-4-yl)ethyl]-2-methyl-8-[4-(trifluoromethyl)phenyl]-2H,8H-pyrazolo[3,4-b]indole-5-carboxamide]", "IC50": "100 to 10000"}, {"molecule": "Cn1cc2c3cc(C(=O)NC[C@@H]4C[C@H]4c4ccco4)ccc3n(-c3ccc(C(F)(F)F)cc3)c2n1", "note": "[B128^]", "IC50": "100 to 10000"}, {"molecule": "CN(Cc1c[nH]cn1)C(=O)c1ccc2c(c1)c1cn(C)nc1n2-c1ccc(C(F)(F)F)cc1", "note": "[Example B50, N-[(1H-imidazol-4-yl)methyl]-N,2-dimethyl-8-[4-(trifluoromethyl)phenyl]-2H,8H-pyrazolo[3,4-b]indole-5-carboxamide]", "IC50": "100 to 10000"}, {"molecule": "CCC(NC(=O)c1ccc2c(c1)c1cn(C)nc1n2-c1ccc(C(F)(F)F)cc1)c1c(C)noc1C", "note": "(stereo not drawn) [Example B71, N-[1-(3,5-dimethyl-1,2-oxazol-4-yl)propyl]-2-methyl-8-[4-(trifluoromethyl)phenyl]-2H,8H-pyrazolo[3,4-b]indole-5-carboxamide]", "IC50": "10 to 100"}, {"molecule": "CO[C@H]1C[C@@H](CCO)N(C(=O)c2ccc3c(c2)c2cn(C)nc2n3-c2ccc(C(F)(F)F)cc2)C1", "note": "(single isomer, unassigned) [Example B4]", "IC50": "> 10000"}, {"molecule": "COCC(NC(=O)c1ccc2c(c1)c1cn(C)nc1n2-c1ccc(C(F)(F)F)cc1)c1ccc(C)o1", "note": "(stereo not drawn) [Example B34, N-[2-methoxy-1-(5-methylfuran-2-yl)ethyl]-2-methyl-8-[4-(trifluoromethyl)phenyl]-2H,8H-pyrazolo[3,4-b]indole-5-carboxamide]", "IC50": "10 to 100"}, {"molecule": "Cn1cc2c3cc(C(=O)NCCc4cc(O)no4)ccc3n(-c3ccc(C(F)(F)F)cc3)c2n1", "note": "[B113^]", "IC50": "100 to 10000"}, {"molecule": "Cn1cc2c3cc(C(=O)NCc4c(C5CC5)cnn4C)ccc3n(-c3ccc(C(F)(F)F)cc3)c2n1", "note": "[B102^]", "IC50": "10 to 100"}, {"molecule": "Cn1cc2c3cc(C(=O)NC(CF)c4cnnn4C)ccc3n(-c3ccc(C(F)(F)F)cc3)c2n1", "note": "(stereo not drawn) [Example B91, N-[2-fluoro-1-(1-methyl-1H-1,2,3-triazol-5-yl)ethyl]-2-methyl-8-[4-(trifluoromethyl)phenyl]-2H,8H-pyrazolo[3,4-b]indole-5-carboxamide]", "IC50": "10 to 100"}, {"molecule": "Cn1cc2c3cc(C(=O)O)ccc3n(-c3cccc(F)c3)c2n1", "note": "[Example 7, 8-(3-fluorophenyl)-2-methyl-2H,8H-pyrazolo[3,4-b]indole-5-carboxylic acid]", "IC50": "10 to 100"}, {"molecule": "Cn1cc2c3cc(C(=O)NCc4ncn5c4CCCC5)ccc3n(-c3ccc(C(F)(F)F)cc3)c2n1", "note": "[Example B20, N-({5H,6H,7H,8H-imidazo[1,5-a]pyridin-1-yl}methyl)-2-methyl-8-[4-(trifluoromethyl)phenyl]-2H,8H-pyrazolo[3,4-b]indole-5-carboxamide]", "IC50": "> 10000"}, {"molecule": "Cn1cc2c3cc(C(=O)O)ccc3n(CC3CCCCC3)c2n1", "note": "[Example 11, 8-(cyclohexylmethyl)-2-methyl-2H,8H-pyrazolo[3,4-b]indole-5-carboxylic acid]", "IC50": "100 to 10000"}, {"molecule": "CCCn1ncnc1CNC(=O)c1ccc2c(c1)c1cn(C)nc1n2-c1ccc(C(F)(F)F)cc1", "note": "[B138^]", "IC50": "100 to 10000"}, {"molecule": "Cc1ccnn1CC(C)CNC(=O)c1ccc2c(c1)c1cn(C)nc1n2-c1ccc(C(F)(F)F)cc1", "note": "(stereo not drawn) [B106^]", "IC50": "> 10000"}]}]}
